Laboratory results as given in ChEMBL document CHEMBL1201862, “PubChem BioAssay data set” (2004).
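Cultured in 96-well plates, cells were exposed to test compound for 48 hours across five concentrations. Here, GI50 denotes the concentration required for 50% inhibition of growth.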 Activity calls are given as the source filed them. Cut-off read from the data, not from the text of the source: active = GI50 up to about 1.1 µM and inactive = higher.

Legend:
Test in all cases: NCI-60 cell line screen, 48 h
T47D = test system: T47D
HL-60 = test system: HL-60
SNB-75 = test system: SNB-75
M14 = test system: M14
ACHN = test system: ACHN
UACC-257 = test system: UACC-257
SF-539 = test system: SF-539
NCI-H226 = test system: NCI-H226
SF-295 = test system: SF-295
Malme-3M = test system: Malme-3M
U-251 = test system: U-251
SK-MEL-2 = test system: SK-MEL-2
OVCAR-5 = test system: OVCAR-5
TK-10 = test system: TK-10
OVCAR-4 = test system: OVCAR-4
NCI-H460 = test system: NCI-H460
RXF 393 = test system: RXF 393
OVCAR-8 = test system: OVCAR-8
HOP-92 = test system: HOP-92
HOP-62 = test system: HOP-62

Measured: GI50

COc1ccc(NC2C(=O)C3(C)CCC2C3(C)C)cc1 (stereo not given)
inactive: T47D > 100 µM | HL-60 29.3 µM | SNB-75 > 100 µM | M14 > 100 µM | ACHN > 100 µM | UACC-257 49 µM | SF-539 > 100 µM | NCI-H226 67.8 µM | SF-295 > 100 µM | Malme-3M > 100 µM | U-251 > 100 µM | SK-MEL-2 > 100 µM | OVCAR-5 > 100 µM | TK-10 > 100 µM | OVCAR-4 72.9 µM | NCI-H460 > 100 µM | RXF 393 > 100 µM | OVCAR-8 > 100 µM | HOP-92 33.4 µM | HOP-62 > 100 µM

CC(=O)OC1C[C@@H](C)C2(CC(c3ccoc3)OC2=O)C2CCC(O)C3(CO3)C12CO (stereo not given in full)
inactive: T47D > 100 µM | HL-60 > 100 µM | SNB-75 > 100 µM | M14 > 100 µM | ACHN > 100 µM | UACC-257 > 100 µM | SF-539 > 100 µM | NCI-H226 > 100 µM | SF-295 > 100 µM | Malme-3M > 100 µM | U-251 > 100 µM | SK-MEL-2 > 100 µM | OVCAR-5 > 100 µM | TK-10 > 100 µM | OVCAR-4 > 100 µM | NCI-H460 > 100 µM | RXF 393 > 100 µM | OVCAR-8 > 100 µM | HOP-92 > 100 µM | HOP-62 > 100 µM

O=C(c1ccccc1)c1sc2c(=O)c(C(=O)c3ccccc3)c(C(=O)c3ccccc3)sc2c(=O)c1C(=O)c1ccccc1
inactive: T47D 47.5 µM | HL-60 21.5 µM | SNB-75 24.5 µM | M14 31.5 µM | ACHN 51.9 µM | UACC-257 > 100 µM | SF-539 23.6 µM | NCI-H226 82.4 µM | SF-295 96.6 µM | Malme-3M 75.7 µM | U-251 44.3 µM | SK-MEL-2 50.6 µM | OVCAR-5 > 100 µM | TK-10 64.3 µM | OVCAR-4 > 100 µM | NCI-H460 > 100 µM | RXF 393 23.8 µM | OVCAR-8 35.4 µM | HOP-92 37.2 µM | HOP-62 51.1 µM

O=C(Nn1cc(F)c(=O)[nH]c1=O)C12CC3CC(CC(C3)C1)C2
inactive: T47D 20.2 µM | HL-60 9.46 µM | SNB-75 24.8 µM | M14 15.1 µM | ACHN 10.7 µM | UACC-257 22 µM | SF-539 2.21 µM | NCI-H226 38.9 µM | SF-295 26.6 µM | Malme-3M 6.73 µM | U-251 19.3 µM | SK-MEL-2 23.2 µM | OVCAR-5 21.7 µM | TK-10 18.1 µM | OVCAR-4 10.2 µM | NCI-H460 1.91 µM | RXF 393 16.4 µM | OVCAR-8 22.6 µM | HOP-92 8.69 µM | HOP-62 12 µM

c1ccc2c(c1)NC1(N3CCCCC3)CCCCC21 (stereo not given)
inactive: T47D 20.9 µM | HL-60 29.6 µM | SNB-75 22.5 µM | M14 55.3 µM | ACHN 47.1 µM | UACC-257 47.3 µM | SF-539 > 100 µM | NCI-H226 52.4 µM | SF-295 45.4 µM | Malme-3M 58.2 µM | U-251 41.2 µM | SK-MEL-2 49.3 µM | OVCAR-5 35.2 µM | TK-10 > 100 µM | OVCAR-4 56.4 µM | NCI-H460 50.6 µM | RXF 393 9.16 µM | OVCAR-8 63.2 µM | HOP-92 20 µM | HOP-62 > 100 µM

COC(=O)c1ccccc1Nc1ccccc1C(=O)OC
inactive: T47D 44.2 µM | HL-60 > 100 µM | SNB-75 39.3 µM | M14 > 100 µM | ACHN > 100 µM | UACC-257 > 100 µM | SF-539 83 µM | NCI-H226 23.7 µM | SF-295 39.4 µM | Malme-3M 37.9 µM | U-251 83.6 µM | SK-MEL-2 > 100 µM | OVCAR-5 > 100 µM | TK-10 41.2 µM | OVCAR-4 48.9 µM | NCI-H460 > 100 µM | RXF 393 68.7 µM | OVCAR-8 89.7 µM | HOP-92 23.4 µM | HOP-62 59.6 µM

NC1NCCC(=O)N1CCc1c[nH]c2ccccc12 (stereo not given)
inactive: T47D 37.2 µM | HL-60 24.8 µM | SNB-75 6.98 µM | M14 19.2 µM | ACHN 24.6 µM | UACC-257 17.8 µM | SF-539 16.7 µM | NCI-H226 28.7 µM | SF-295 24.5 µM | Malme-3M 19.9 µM | U-251 65.2 µM | SK-MEL-2 19.9 µM | OVCAR-5 23.6 µM | TK-10 25.9 µM | OVCAR-4 27.1 µM | NCI-H460 16.8 µM | RXF 393 22.8 µM | OVCAR-8 39.7 µM | HOP-92 31.1 µM | HOP-62 19.2 µM

CC(Cl)(CCC(Cl)C(C)(C)Cl)C(=O)CBr (stereo not given)
inactive: T47D 17.9 µM | HL-60 2.24 µM | SNB-75 13.6 µM | M14 9.79 µM | ACHN 8.04 µM | UACC-257 12.4 µM | SF-539 16.1 µM | NCI-H226 16.8 µM | SF-295 21.4 µM | Malme-3M 12.3 µM | U-251 15.6 µM | SK-MEL-2 14.7 µM | OVCAR-5 17.5 µM | TK-10 11.8 µM | OVCAR-4 2.73 µM | NCI-H460 15.9 µM | RXF 393 2.88 µM | OVCAR-8 10.5 µM | HOP-92 7.93 µM | HOP-62 18.2 µM

N/N=C1/C(=N/O)CCc2nonc21
inactive: T47D > 100 µM | HL-60 > 100 µM | SNB-75 > 100 µM | M14 > 100 µM | ACHN > 100 µM | UACC-257 > 100 µM | SF-539 > 100 µM | NCI-H226 24.6 µM | SF-295 > 100 µM | Malme-3M > 100 µM | U-251 > 100 µM | SK-MEL-2 > 100 µM | OVCAR-5 > 100 µM | TK-10 > 100 µM | OVCAR-4 > 100 µM | NCI-H460 > 100 µM | RXF 393 > 100 µM | OVCAR-8 > 100 µM | HOP-92 > 100 µM | HOP-62 > 100 µM

O=S(=O)(O)c1ccc2c(/N=N\c3cccc4ccccc34)c(O)c(S(=O)(=O)O)cc2c1
inactive: T47D > 100 µM | HL-60 > 100 µM | SNB-75 > 100 µM | M14 > 100 µM | ACHN > 100 µM | UACC-257 > 100 µM | SF-539 > 100 µM | NCI-H226 > 100 µM | SF-295 > 100 µM | Malme-3M > 61.7 µM | U-251 > 100 µM | SK-MEL-2 > 100 µM | OVCAR-5 > 100 µM | TK-10 > 100 µM | OVCAR-4 > 100 µM | NCI-H460 > 100 µM | RXF 393 > 100 µM | OVCAR-8 > 100 µM | HOP-92 > 100 µM | HOP-62 > 100 µM
